Data published in patent US9216178B2, “Dry blend formulation of tetrahydrobiopterin” (BioMarin Pharmaceutical Inc., priority 2011, dated 2015).
Structures can show the parent of a compound that is named as a salt. Values belong to the molecule of their own block, whether it stands above or below them.

Columns and labels:
[1] = children treated for 4, 8, and 12 weeks; cited from earlier work
[2] = room temperature, aqueous solutions; cited from earlier work
[3] = children, after 6 months of treatment; cited from earlier work
[4] = Stability of BH4 dihydrochloride dry blend powder / sachet formulations; type: physicochemical; settings: Initial time point
Description: Stability under different storage conditions were assessed and the potency of the active BH4 dihydrochloride is presented.
Certain embodiments of the sachet dosage forms of the present disclosure are illustrated in Table 18, with a comparison of the stability of different BH4 or BH4-related compounds packaged in foil pouches.

[5] = Clinical evaluation of BH4 capsules: drug levels in cerebrospinal fluid; type: in vivo; settings: doses up to 40 mg/kg/day as a single dose; expected
Description: The clinical evaluation comprises two clinical studies.
A first study evaluates the relative bioavailability of BH4 dihydrochloride administered as a capsule in fasted conditions and after a meal in healthy subjects. Ascending doses of BH4 dihydrochloride up to 40 mg/kg/day are evaluated and drug levels in cerebrospinal fluid (CSF) are measured. […] Measurement of BH4 levels in CSF is expected to be indicative of BH4 availability in brain tissues.

[6] = physchem; type: physicochemical; settings: water
Source text: However, despite the commonality of wet granulation methods, it is not ideal for all blends. Specifically, BH4 dihydrochloride is moisture sensitive and will rapidly degrade in the presence of water. Furthermore, BH4 dihydrochloride is pH sensitive and commonly degrades in the presence of reducing sugars, flavoring agents, flavor enhancers, and aqueous solutions and thus wet blending of BH4 dihydrochloride with excipients can lead to degradation of the active ingredient. […] Accordingly, the dry blend method of producing a stable BH4 dihydrochloride powder sachet dosage is ideal.

Structure (SMILES): C[C@H](O)[C@H](O)[C@H]1CNc2nc(N)[nH]c(=O)c2N1 [BH4, (6R)-L-erythro-5,6,7,8-tetrahydrobiopterin]
total scores on the Parental Satisfaction Survey (PSS) [1]: significant increases
shelf-life [2]: less than 8 hours
social interaction scores [3]: significant improvement

Degradation/impurity: BH2 (Dihydrobiopterin) [4]: 0.04 area %
Degradation/impurity: BH4 [4]: 0.05 area %
Degradation/impurity: R-Tetrahydrobiolumazine [4]: 0.05 area %
Degradation/impurity: S-BH4 [4]: 0.03 area %
Potency (%) [4]: 100.6%
Total Impurities (%) [4]: 0.17%
Structure (SMILES): C[C@H](O)[C@H](O)[C@H]1CNc2[nH]c(N)nc(=O)c2N1.Cl.Cl [100 μg/mL reference API]

peak levels of BH4 in CSF [5]: higher peak levels
solubility [6]: > 100 mg/mL
Structure (SMILES): C[C@H](O)[C@H](O)[C@H]1CNc2nc(N)[nH]c(=O)c2N1 [BH4 dihydrochloride, (6R)-L-erythro-5,6,7,8-tetrahydrobiopterin dihydrochloride]
